Assay results from US7655431B2, “Compositions and methods based upon the kinase haspin” (The Brigham and Women's Hospital, Inc., priority 2004, dated 2010).
Several values for one entry are separate records, joined by “and”; a condition that tells them apart may be missing. Equal values may be shown once.

Key:
[1] = test system: HeLa Tet-On cells transfected with vector alone; assay: proliferation and cell cycle of vector-transfected HeLa Tet-On cells with doxycycline; format: cell-based, human
Excerpt: Using customized double stranded adapters, full length human haspin cDNA (amino acids 1-798, Higgins, Gene 267:55-69 (2001)) was ligated into the Hind III-Xba I sites of the expression vector pcDNA3 (Invitrogen) and, to generate myc-tagged haspin, cDNA encoding residues 2-798 was inserted into the pcDNA3-derived plasmid pCANmyc1. To generate a plasmid encoding EGFP-haspin, haspin cDNA encoding amino acids 2-798 is inserted into the Sac II-BamH I sites of pEGFP-C1 (Clontech). To generate inducible vectors, cDNA encoding myc-haspin from pCANmyc-haspin (Hind III-EcoR V) is blunt-ended and inserted into the Pvu II site of pTRE2/pur (BD Clontech) and Nhe I-Xba I fragments encoding EGFP-haspin or EGFP alone from pEGFP-haspin or pEGFP-C1, respectively are ligated into the Nhe I site of pTRE2pur. All constructs are verified by DNA sequencing. Transient transfection is carried out using Lipofectamine 2000 (Invitrogen). Stable transfection of HeLa Tet-On (BD Clontech) cells is carried out using Lipofectin with Plus Reagent (Invitrogen). After 24 h, cells are transferred to 96-well plates and incubated in medium containing 1 μg/ml puromycin and 100 μg/ml G418. Clones expressing myc-haspin or EGFP-haspin in the presence, but not absence, of 1 μg/ml doxycycline are selected by anti-myc immunoblotting or flow cytometric analysis of EGFP fluorescence respectively. […]

6His-haspin kinase = target: T1, 6His-haspin kinase (Homo sapiens, UniProt Q8TF76); assay: ELISA-based microtiter plate haspin kinase assay; format: biochemical; details: 100 μM ATP, 10 mM MnCl2, 20 min 37° C.
T1 construct: insertion of a PCR product encoding residues 471-798 of human haspin into the PshA I site of the vector pET45b(+); 6His (N); made in house; host or cells: E. coli BL21
T1 sequence (Q8TF76 471-798): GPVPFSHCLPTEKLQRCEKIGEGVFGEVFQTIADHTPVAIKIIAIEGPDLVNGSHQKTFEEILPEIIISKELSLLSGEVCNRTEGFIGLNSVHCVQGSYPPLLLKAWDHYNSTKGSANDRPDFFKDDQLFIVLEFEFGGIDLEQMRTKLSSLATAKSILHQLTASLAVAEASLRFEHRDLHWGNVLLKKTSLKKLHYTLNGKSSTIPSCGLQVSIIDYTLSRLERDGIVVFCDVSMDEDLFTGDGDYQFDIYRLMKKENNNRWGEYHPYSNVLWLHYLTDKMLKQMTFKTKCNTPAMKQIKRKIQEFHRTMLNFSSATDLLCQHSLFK
Protocol: In these assays, H3-GST substrate protein (or H3-T3A-GST non-phosphorylable control) was immobilized on 96-well microtiter plates by incubation in PBS overnight at 4° C. Following washing and blocking with 1% BSA/TBS, 6His-haspin kinase was added to the wells in 50 μl total volume of Hepes-buffered saline (HBS)/100 μM ATP/10 mM MnCl2 and allowed to phosphorylate the immobilized substrate for 20 min at 37° C. After washing thrice with TBS/0.1% Tween-20, affinity-purified polyclonal anti-phospho-histone H3 (Thr-3) antibodies were added for 1 h at room temperature. After washing, antibody binding (i.e. phosphorylation) was detected using 1/2000 dilution of donkey anti-rabbit IgG-Horse Radish […] (HRP) conjugate (Jackson) followed by tetramethylbenzidine (TMB) color development (BD Biosciences). Measurement of A450 nm-A570 nm (to correct for well-to-well variation in background absorbance) was carried out after addition of H2SO4.

Row | Compound | cell number relative to uninduced control ([1]; after 8 days, two experiments, vector alone) | cell cycle progression ([1]; vector-transfected cells) | haspin kinase activity (phosphorylation of immobilized H3-GST) (6His-haspin kinase)
1 | C[C@H]1c2cccc(O)c2C(=O)C2=C(O)[C@]3(O)C(=O)C(C(N)=O)=C(O)[C@@H](N(C)C)[C@@H]3[C@@H](O)[C@@H]21 [Doxycycline, doxycycline] | 104% and 115% | no effect | –
2 | O=C(O)CN(CCN(CC(=O)O)CC(=O)O)CC(=O)O [EDTA] | – | – | inhibition
3 | ARTKQTAR [H3(1-8)] | – | – | inhibition
